Assay results published in US20020183309A1, “Novel amines as histamine-3 receptor ligands and their therapeutic applications” (priority 2001, published 2002).

Target: T1, histamine-3 receptors (H3 receptor) (Rattus norvegicus, UniProt Q9QYN8)
T1 construct: from tissue; host or cells: male Sprague-Dawley rat brain cortex membranes
Test: (3H)-N-α-methylhistamine binding to rat cortical membranes
Conditions: male Sprague-Dawley rat brain cortical membranes; (3H)-N-α-methylhistamine ~0.6 nM; 30 minutes at 25° C.; Cheng-Prusoff equation; read-out: Ki
Method: Briefly, male Sprague-Dawley rat brain cortices were homogenized (1 g tissue/10 mL buffer) in 50 mM Tris-HCl/5 mM EDTA containing protease inhibitor cocktail (Calbiochem) using a polytron set at 20,500 rpm. Homogenates were centrifuged for 20 minutes at 40,000×g. The supernatant was decanted, and pellets were weighed. The pellet was resuspended by polytron homogenization in 40 mL 50 mM Tris-HCl/5 mM EDTA with protease inhibitors and centrifuged for 20 minutes at 40,000×g. […] Rat cortical membranes (12 mg wet weight/tube) were incubated with (^3H)-N-α-methylhistamine (˜0.6 nM) with or without H3 receptor antagonists in a total incubation volume of 0.5 mL of 50 mM Tris-HCl/5 mM EDTA (pH 7.7). Test compounds were dissolved in DMSO to provide a 20 mM solution, serially diluted and then added to the incubation mixtures prior to initiating the incubation assay by addition of the membranes. Thioperamide (3 μM) was used to determine nonspecific binding. Binding incubations were conducted for 30 minutes at 25° C. and terminated by addition of 2 mL of ice cold 50 mM Tris-HCl (pH 7.7) and filtration through 0.3% polyethylenimine-soaked Unifilter plates (Packard). These filters were washed 4 additional times with 2 mL of ice-cold 50 mM Tris-HCl and dried for 1 hour. Radioactivity was determined using liquid scintillation counting techniques. Results were analyzed by Hill transformation and Ki values were determined using the Cheng-Prusoff equation.

T1 sequence (Q9QYN8 whole entry): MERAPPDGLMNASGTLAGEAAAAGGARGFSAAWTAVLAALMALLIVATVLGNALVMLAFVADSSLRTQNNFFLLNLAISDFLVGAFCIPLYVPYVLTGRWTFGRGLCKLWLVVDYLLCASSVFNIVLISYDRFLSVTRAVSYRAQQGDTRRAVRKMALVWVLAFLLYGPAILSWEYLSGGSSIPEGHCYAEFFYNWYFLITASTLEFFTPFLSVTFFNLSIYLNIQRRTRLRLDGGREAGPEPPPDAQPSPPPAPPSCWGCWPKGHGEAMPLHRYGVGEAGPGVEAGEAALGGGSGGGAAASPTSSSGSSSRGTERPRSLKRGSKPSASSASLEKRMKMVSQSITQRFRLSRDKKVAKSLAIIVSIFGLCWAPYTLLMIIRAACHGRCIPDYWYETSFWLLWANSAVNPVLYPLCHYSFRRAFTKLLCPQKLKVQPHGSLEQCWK

Row | Compound | Ki [nM]
1 | CN(CCc1cc2cc(-c3ccc(C#N)cc3)ccc2o1)C(C)(C)C [Example 18, 4-(2-{2-[tert-butyl (methyl)amino]ethyl}-1-benzofuran-5-yl)benzonitrile] | 60.5
2 | O=C(c1ccc(-c2ccc3oc(CCN4CCOCC4)cc3c2)nc1)N1CCOCC1 [Example 53, 4-[(6-{2-[2-(4-morpholinyl)ethyl]-1-benzofuran-5-yl}-3-pyridinyl)carbonyl]morpholine] | 242
3 | CC(C)N(C)CCc1cc2cc(-c3ccc(C(=O)N4CCOCC4)cn3)ccc2o1 [Example 56, N-isopropyl-N-methyl-N-(2-{5-[5-(4-morpholinylcarbonyl)-2-pyridinyl]-1-benzofuran-2-yl}ethyl)amine] | 105
4 | CC(C)CN(C)CCc1cc2cc(-c3ccc(C#N)cc3)ccc2o1 [Example 20, 4-(2-{2-[isobutyl(methyl)amino]ethyl}-1-benzofuran-5-yl)benzonitrile] | 180
5 | CCN(CCc1cc2cc(-c3ccc(C#N)cc3)ccc2o1)C(C)C [Example 21, 4-(2-{2-[ethyl(isopropyl)amino]ethyl}-1-benzofuran-5-yl)benzonitrile] | 44.4
6 | CC(C)CN(C)CCc1cc2cc(-c3ccc(C(=O)N4CCOCC4)cc3)ccc2o1 [Example 37, N-isobutyl-N-methyl-N-(2-{5-[4-(4-morpholinylcarbonyl)phenyl]-1-benzofuran-2-yl}ethyl)amine] | 248
7 | CC(C)N(C)CCc1cc2cc(-c3ccc(C(=O)N4CCOCC4)cc3)ccc2o1 [Example 36, N-isopropyl-N-methyl-N-(2-{5-[4-(4-morpholinylcarbonyl)phenyl]-1-benzofuran-2-yl}ethyl)amine] | 52.1
8 | CC(C)CN(C)CCc1cc2cc(-c3ccc(C(=O)N4CCOCC4)cn3)ccc2o1 [Example 55, N-isobutyl-N-methyl-N-(2-{5-[5-(4-morpholinylcarbonyl)-2-pyridinyl]-1-benzofuran-2yl}ethyl)amine] | 575
9 | CCCN(CC)CCc1cc2cc(-c3ccc(C#N)cc3)ccc2o1 [Example 22, 4-(2-{2-[ethyl(propyl)amino]ethyl}-1-benzofuran-5-yl)benzonitrile] | 69.2
10 | Cc1c(CCN2CCCCC2)c(=O)oc2ccc(-c3ccc(C#N)cc3)cc12 [Example 42, 4-{4-methyl-2-oxo-3-[2-(1-piperidinyl)ethyl]-2H-chromen-6-yl}benzonitrile] | 41.8
11 | CC(C)N(C)CCc1cc2cc(-c3ccc(C#N)cc3)ccc2o1 [Example 19, 4-(2-{2-[isopropyl(methyl)amino]ethyl}-1-benzofuran-5-yl)benzonitrile] | 77.7
12 | CCCN(CC)CCc1cc2cc(-c3ccc(C(=O)N4CCOCC4)cn3)ccc2o1 [Example 59, N-ethyl-N-propyl-N-(2-{5-[5-(4-morpholinylcarbonyl)-2-pyridinyl]-1-benzofuran-2-yl}ethyl)amine] | 79.1
13 | CCN(CCc1cc2cc(-c3ccc(C(=O)N4CCOCC4)cn3)ccc2o1)C(C)C [Example 57, N-ethyl-N-isopropyl-N-(2-{5-[5-(4-morpholinylcarbonyl)-2-pyridinyl]-1-benzofuran-2-yl}ethyl)amine] | 115
14 | C[C@@H]1CC[C@@H](C)N1CCc1cc2cc(-c3ccc(C#N)cc3)ccc2o1 [Example 12, 4-(2-{2-[(2R,5R)-2,5-dimethylpyrrolidinyl]ethyl}-1-benzofuran-5-yl)benzonitrile] | 38.4
15 | CN(C)CCc1cc2cc(-c3ccc(C(=O)N4CCOCC4)cc3)ccc2o1 [Example 39, N,N-dimethyl-N-(2-{5-[4-(4-morpholinylcarbonyl)phenyl]-1-benzofuran-2-yl}ethyl)amine] | 148
16 | CN(CCc1cc2cc(-c3ccc(C(=O)N4CCOCC4)cc3)ccc2o1)C(C)(C)C [Example 35, N-(tert-butyl)-N-methyl-N-(2-{5-[4-(4-morpholinylcarbonyl)phenyl]-1-benzofuran-2-yl}ethyl)amine] | 67.9
17 | O=C(c1ccc(-c2ccc3oc(CCN4CC=CCC4)cc3c2)cc1)N1CCOCC1 [Example 33, 4-(4-{2-[2-(3,6-dihydro-1(2H)-pyridinyl)ethyl]-1-benzofuran-5-yl}benzoyl)morpholine] | 32.3
18 | CCN(CC)CCc1cc2cc(-c3ccc(C#N)cc3)ccc2o1 [Example 5, 4-{2-[2-(diethylamino)ethyl]-1-benzofuran-5-yl}benzonitrile] | 49.4

The next compounds have a lower Ki than those just listed; values first:

Row | Ki [nM] | Compound
19 | 26 | CCN(CCc1cc2cc(-c3ccc(C(=O)N4CCOCC4)cc3)ccc2o1)C(C)C [Example 38, N-ethyl-N-isopropyl-N-(2-{5-[4-(4-morpholinylcarbonyl)phenyl]-1-benzofuran-2-yl}ethyl)amine]
20 | 25.1 | CC1CCN(CCc2cc3cc(-c4ccc(C#N)cc4)ccc3o2)CC1 [Example 14, 4-{2-[2-(4-methyl-1-piperidinyl)ethyl]-1-benzofuran-5-yl}benzonitrile]
21 | 19.3 | 4-(2-{2-[(2R,6S)-2,6-dimethylpiperidinyl]ethyl}-1-benzofuran-5-yl)benzonitrile [Example 11]
22 | 17.2 | O=C(c1ccc(-c2ccc3oc(CCN4CCCC4)cc3c2)nc1)N1CCOCC1 [Example 44, 4-[(6-{2-[2-(1-pyrrolidinyl)ethyl]-1-benzofuran-5-yl}-3-pyridinyl)carbonyl]morpholine]
23 | 14.4 | CCN(CC)CCc1cc2cc(-c3ccc(C(=O)N4CCOCC4)cc3)ccc2o1 [Example 25, N,N-diethyl-N-(2-{5-[4-(4-morpholinylcarbonyl)phenyl]-1-benzofuran-2-yl}ethyl)amine]
24 | 14.4 | C[C@@H]1CC[C@@H](C)N1CCc1cc2cc(-c3ccc(C(=O)N4CCOCC4)cn3)ccc2o1 [Example 49, 4-{[6-(2-{2-[(2R,5R)-2,5-dimethylpyrrolidinyl]ethyl}-1-benzofuran-5-yl)-3-pyridinyl]carbonyl}morpholine]
25 | 9.9 | C[C@@H]1CCCN1CCc1cc2cc(C(=O)C3CC3)ccc2o1 [Example 75, cyclopropyl(2-{2-[(2R)-2-methyl-1-pyrrolidinyl]ethyl}-1-benzofuran-5-yl)methanone]
26 | 8.46 | 4-[4-(2-{2-[(2R,6S)-2,6-dimethylpiperidinyl]ethyl}-1-benzofuran-5-yl)benzoyl]morpholine [Example 29]
27 | 8.2 | CSc1ccc(C(=O)c2ccc3oc(CCN4CCC[C@H]4C)cc3c2)cc1 [Example 78, (2-{2-[(2R)-2-methyl-1-pyrrolidinyl]ethyl}-1-benzofuran-5-yl)[4-(methylthio)phenyl]methanone]
28 | 2.9 | COc1ccc(C(=O)c2ccc3oc(CCN4CCC[C@H]4C)cc3c2)cc1 [Example 73, (4-methoxyphenyl)(2-{2-[(2R)-2-methyl-1-pyrrolidinyl]ethyl}-1-benzofuran-5-yl)methanone]
29 | 2 | C[C@@H]1CCCN1CCc1cc2cc(C(=O)c3cccc(Cl)c3)ccc2o1 [Example 71, (3-chlorophenyl)(2-{2-[(2R)-2-methyl-1-pyrrolidinyl]ethyl}-1-benzofuran-5-yl)methanone]
